Where two headings read alike, the source gives them in different places. In the oligonucleotide strings, read from the 5' end, every base follows the letter of its sugar. An asterisk marks phosphorothioate; unmarked linkages are phosphodiester. Other units and linkages are bracketed, terminal groups are in braces. A string of capitals states the bases alone. e = 2'-O-(2-methoxyethyl) (MOE); [5mC] = 5-methylcytosine; d = 2'-deoxy (DNA)
How the values were obtained:
BALB/c mice = conditions: mouse, in vivo
[1] = system: intrinsic pathway of blood coagulation; test: Activated Partial Thromboplastin Time (aPTT) in platelet poor plasma of treated mice, reported as INR; assay type: in vivo, mouse
Method: (§1) Prothrombin Time (PT) and Activated Partial Thromboplastin Time (aPTT) were measured using platelet poor plasma (PPP) from mice treated with ISIS 403102. PT and aPTT values provided in Table 20 are reported as International Normalized Ratio (INR) values. INR values for PT and aPTT were determined by dividing the PT or aPTT value for the experimental group by the PT or aPTT for the PBS treated group. This ratio was then raised to the power of the International Sensitivity Index (ISI) of the tissue factor used.
as §1, with “in Table 22 are reported” for “in Table 20 are reported”, “experimental group (i.e. 50 mg/kg treatment with ISIS 403102) by the” for “experimental group by the”
as §1, with “in Table 24 are reported” for “in Table 20 are reported”, “experimental group (i.e. 50 mg/kg treatment with ISIS 403102) by the” for “experimental group by the”

murine Factor 7 protein = test: Plasma Factor 7 protein, Factor 7 chromogenic assay (Hyphen BioMed), BALB/c mice; assay type: in vivo, mouse; conditions: for % inhibition of murine Factor 7 protein (plasma): relative to PBS control
Method: BALB/c mice were treated with ISIS 403102 ([…], target site 11336, incorporated herein as SEQ ID NO: 161). BALB/c mice were injected subcutaneously with 5 mg/kg, 10 mg/kg, 25 mg/kg, or 50 mg/kg of ISIS 403102 twice a week for 3 weeks. A control group of mice was injected subcutaneously with PBS twice a week for 3 weeks. After the treatment period, whole liver was collected for RNA and protein analysis, and plasma was collected for clotting analysis (PT/aPTT).
Plasma Factor 7 protein was measured using a Factor 7 chromogenic assay (Hyphen BioMed). […] Results are presented as percent inhibition of Factor 7, relative to control.

human Factor 7 mRNA = test: Inhibition of human Factor 7 mRNA by 2-10-2 MOE shortmers in HepB3 cells, electroporation, 1,000 nM; assay type: cell-based; conditions: electroporation, 1,000 nM oligonucleotide, approximately 24 hours, relative to untreated control cells
Outline: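 14-mer 2-10-2 2′-MOE gapmers, full phosphorothioate, 5-methylcytidines, electroporated at 1,000 nM into HepB3 cells (20,000/well). After ~24 h, mRNA quantified by real-time RT-PCR, normalized to RIBOGREEN total RNA; percent inhibition relative to untreated cells.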

CCATAGAACAGCTTCACAGG (sugars from the 5' end e5 d10 e5, backbone and methylation of C not given here) [ISIS 403102]
amount of bleeding in comparison to PBS treated mice (BALB/c mice): slight decrease in the amount of bleeding
bleeding as compared to PBS control mice (BALB/c mice): did not significantly affect bleeding
Blood (BALB/c mice; sc, 25 mg/kg): 0.06 g
Blood (BALB/c mice; sc, 37.5 mg/kg): 0.06 g
Blood (BALB/c mice; sc, 40 mg/kg): 0.10 g
bleeding compared to PBS treated mice (BALB/c mice; sc, 40 mg/kg): less bleeding than PBS treated mice
Blood (BALB/c mice; sc, 50 mg/kg): 0.10 g
amount of bleeding in comparison to PBS treated mice (BALB/c mice; sc, 50 mg/kg): Bleeding was the same
aPTT INR ([1]; BALB/c mice, 5 mg/kg s.c. twice a week for 3 weeks): 1.05
aPTT INR ([1]; BALB/c mice, 10 mg/kg s.c. twice a week for 3 weeks): 1.04
aPTT INR ([1]; BALB/c mice, 25 mg/kg s.c. twice a week for 3 weeks): 1.09
aPTT INR ([1]; BALB/c mice, 50 mg/kg s.c. twice a week for 3 weeks): 1.16
aPTT INR ([1]; BALB/c mice, 50 mg/kg, 1 dose, 1 day after last dose): 1.08
aPTT INR ([1]; BALB/c mice, 50 mg/kg, 1 dose, 3 days after last dose): 1.10
aPTT INR ([1]; BALB/c mice, 50 mg/kg, 2 doses, 3 days after last dose): 1.29
aPTT INR ([1]; BALB/c mice, 50 mg/kg, 4 doses, 3 days after last dose): 1.53
aPTT INR ([1]; BALB/c mice, 50 mg/kg, 6 doses, 2 days after last dose): 1.62
aPTT INR ([1]; BALB/c mice, 50 mg/kg, 6 doses, 7 days after last dose): 1.67
aPTT INR ([1]; BALB/c mice, 50 mg/kg, 6 doses, 14 days after last dose): 1.25
aPTT INR ([1]; BALB/c mice, 50 mg/kg, 6 doses, 28 days after last dose): 0.90
aPTT INR ([1]; BALB/c mice, 50 mg/kg, 6 doses, 42 days after last dose): 1.00
aPTT INR ([1]; BALB/c mice, 50 mg/kg, 6 doses, 56 days after last dose): 0.98
aPTT INR ([1]; BALB/c mice, single dose 50 mg/kg, day 1): 1.00
aPTT INR ([1]; BALB/c mice, single dose 50 mg/kg, day 2): 1.05
aPTT INR ([1]; BALB/c mice, single dose 50 mg/kg, day 3): 1.24
aPTT INR ([1]; BALB/c mice, single dose 50 mg/kg, day 4): 1.15
aPTT INR ([1]; BALB/c mice, single dose 50 mg/kg, day 6): 1.23
aPTT INR ([1]; BALB/c mice, single dose 50 mg/kg, day 8): 1.18
aPTT INR ([1]; BALB/c mice, single dose 50 mg/kg, day 12): 1.18
aPTT INR ([1]; BALB/c mice, single dose 50 mg/kg, day 24): 1.02
aPTT INR ([1]; BALB/c mice, single dose 50 mg/kg, day 56): 0.97
aPTT compared to the control ([1]; Example 11, 5-50 mg/kg sc twice a week for 3 weeks): slightly prolonged
aPTT over time ([1]; Example 13, 6 doses, day 7 to day 56): aPTT decreased
aPTT INR ([1]; single dose 50 mg/kg, day 4): 1.24 INR
aPTT INR ([1]; single dose 50 mg/kg, day 56): 0.97 INR
aPTT INR ([1]; single dose 50 mg/kg, starting value (day not given, day 1 implied)): 1.00 INR
% inhibition of murine Factor 7 protein (plasma) (murine Factor 7 protein; 5 mg/kg s.c. twice a week for 3 weeks): 71%
% inhibition of murine Factor 7 protein (plasma) (murine Factor 7 protein; 10 mg/kg s.c. twice a week for 3 weeks): 88%
% inhibition of murine Factor 7 protein (plasma) (murine Factor 7 protein; 25 mg/kg s.c. twice a week for 3 weeks): 99%
% inhibition of murine Factor 7 protein (plasma) (murine Factor 7 protein; 50 mg/kg s.c. twice a week for 3 weeks): 99%
reduction of murine Factor 7 protein over PBS control (murine Factor 7 protein; 5-50 mg/kg sc twice a week for 3 weeks, plasma): dose-dependent reduction

407939 (antisense eT*eG*e[5mC]*eA*eG*d[5mC]*d[5mC]*d[5mC]*dG*dG*d[5mC]*dA*d[5mC]*d[5mC]*d[5mC]*eA*eG*e[5mC]*eG*eA) [compound 407939]
% inhibition of human Factor 7 mRNA (human Factor 7 mRNA): 81%

Reference: US20120214862A1, “MODULATION OF FACTOR 7 EXPRESSION” (ISIS Pharmaceuticals, Inc., priority 2009, published 2012)
